Assays:
Assay in all cases: kinome scan
Assay type in all cases: binding
[1] = target: T1, CDK2 (Homo sapiens, UniProt P24941); settings: 10 µM
T1 construct: purchased DiscoverX (KINOMEscan)

[2] = target: T2, MARK1 (Homo sapiens, UniProt Q9P0L2); settings: 10 µM
T2 construct: purchased DiscoverX (KINOMEscan)

[3] = target: T3, BRAF(V600E) (Homo sapiens, UniProt P15056, V600E); settings: 10 µM
T3 construct: purchased DiscoverX (KINOMEscan)

[4] = target: T4, ASK2 (Homo sapiens, UniProt O95382); settings: 10 µM
T4 construct: purchased DiscoverX (KINOMEscan)

[5] = target: T5, TESK1 (Homo sapiens, UniProt Q15569); settings: 10 µM
T5 construct: purchased DiscoverX (KINOMEscan)

[6] = target: T6, BMX (Homo sapiens, UniProt P51813); settings: 10 µM
T6 construct: purchased DiscoverX (KINOMEscan)

[7] = target: T7, PIK4CB (Homo sapiens, UniProt Q9UBF8)
T7 construct: purchased DiscoverX (KINOMEscan)
T7 sequence (Q9UBF8 whole entry): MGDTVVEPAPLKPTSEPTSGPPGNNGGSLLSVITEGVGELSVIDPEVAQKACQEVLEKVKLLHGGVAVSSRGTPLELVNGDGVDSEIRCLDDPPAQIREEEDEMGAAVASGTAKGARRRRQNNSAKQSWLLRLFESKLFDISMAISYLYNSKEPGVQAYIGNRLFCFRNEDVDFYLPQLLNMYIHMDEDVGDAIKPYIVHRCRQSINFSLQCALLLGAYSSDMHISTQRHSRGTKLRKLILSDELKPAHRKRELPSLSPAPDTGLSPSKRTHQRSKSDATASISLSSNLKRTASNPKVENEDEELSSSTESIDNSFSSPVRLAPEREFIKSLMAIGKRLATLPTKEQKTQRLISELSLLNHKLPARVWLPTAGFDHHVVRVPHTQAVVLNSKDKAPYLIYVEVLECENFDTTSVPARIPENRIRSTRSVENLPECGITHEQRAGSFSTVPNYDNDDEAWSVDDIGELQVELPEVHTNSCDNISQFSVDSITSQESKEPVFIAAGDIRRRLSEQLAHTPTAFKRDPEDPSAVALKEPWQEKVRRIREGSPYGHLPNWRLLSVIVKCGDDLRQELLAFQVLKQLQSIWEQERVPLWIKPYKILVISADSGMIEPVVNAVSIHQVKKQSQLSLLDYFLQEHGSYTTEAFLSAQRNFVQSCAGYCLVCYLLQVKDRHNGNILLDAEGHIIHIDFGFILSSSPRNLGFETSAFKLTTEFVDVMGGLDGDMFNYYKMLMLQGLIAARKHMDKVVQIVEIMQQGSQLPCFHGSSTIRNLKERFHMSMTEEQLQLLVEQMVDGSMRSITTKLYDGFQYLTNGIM

[8] = target: T8, CDKL5 (Homo sapiens, UniProt O76039); settings: 10 µM
T8 construct: purchased DiscoverX (KINOMEscan)
T8 sequence (O76039 whole entry): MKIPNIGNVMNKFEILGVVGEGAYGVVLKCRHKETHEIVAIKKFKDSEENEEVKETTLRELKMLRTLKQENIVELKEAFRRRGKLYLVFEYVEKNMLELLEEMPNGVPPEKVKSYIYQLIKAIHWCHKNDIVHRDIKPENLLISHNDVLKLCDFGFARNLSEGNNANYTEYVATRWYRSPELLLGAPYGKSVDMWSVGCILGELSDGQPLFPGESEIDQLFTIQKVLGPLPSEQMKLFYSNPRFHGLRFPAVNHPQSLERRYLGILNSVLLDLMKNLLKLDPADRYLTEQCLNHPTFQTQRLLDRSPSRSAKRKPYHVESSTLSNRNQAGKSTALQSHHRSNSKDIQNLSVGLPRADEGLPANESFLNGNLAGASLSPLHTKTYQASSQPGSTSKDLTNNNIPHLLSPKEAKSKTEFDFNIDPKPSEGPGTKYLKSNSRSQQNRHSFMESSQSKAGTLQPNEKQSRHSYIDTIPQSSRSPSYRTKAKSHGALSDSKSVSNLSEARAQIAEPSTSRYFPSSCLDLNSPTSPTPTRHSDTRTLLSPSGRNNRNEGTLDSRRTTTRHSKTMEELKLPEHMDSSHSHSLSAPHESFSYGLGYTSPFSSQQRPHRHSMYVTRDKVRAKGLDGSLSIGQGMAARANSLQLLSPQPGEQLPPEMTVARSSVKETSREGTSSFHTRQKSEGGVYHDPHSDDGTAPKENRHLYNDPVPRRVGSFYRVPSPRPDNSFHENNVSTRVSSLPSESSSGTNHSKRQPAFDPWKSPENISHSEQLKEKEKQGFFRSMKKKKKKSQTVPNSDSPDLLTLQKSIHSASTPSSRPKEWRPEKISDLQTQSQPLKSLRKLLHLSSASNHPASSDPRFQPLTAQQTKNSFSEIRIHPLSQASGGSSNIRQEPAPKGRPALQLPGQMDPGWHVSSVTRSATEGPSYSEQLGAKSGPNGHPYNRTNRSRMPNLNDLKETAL

[9] = target: T9, ABL1(F317L)-phosphorylated (Homo sapiens, UniProt P00519, F317L); settings: 10 µM
T9 construct: purchased DiscoverX (KINOMEscan)

[10] = target: T10, PHKG1 (Homo sapiens, UniProt Q16816); settings: 10 µM
T10 construct: purchased DiscoverX (KINOMEscan)

[11] = target: T11, TAK1 (Homo sapiens, UniProt O43318); settings: 10 µM
T11 construct: purchased DiscoverX (KINOMEscan)
T11 sequence (O43318 whole entry): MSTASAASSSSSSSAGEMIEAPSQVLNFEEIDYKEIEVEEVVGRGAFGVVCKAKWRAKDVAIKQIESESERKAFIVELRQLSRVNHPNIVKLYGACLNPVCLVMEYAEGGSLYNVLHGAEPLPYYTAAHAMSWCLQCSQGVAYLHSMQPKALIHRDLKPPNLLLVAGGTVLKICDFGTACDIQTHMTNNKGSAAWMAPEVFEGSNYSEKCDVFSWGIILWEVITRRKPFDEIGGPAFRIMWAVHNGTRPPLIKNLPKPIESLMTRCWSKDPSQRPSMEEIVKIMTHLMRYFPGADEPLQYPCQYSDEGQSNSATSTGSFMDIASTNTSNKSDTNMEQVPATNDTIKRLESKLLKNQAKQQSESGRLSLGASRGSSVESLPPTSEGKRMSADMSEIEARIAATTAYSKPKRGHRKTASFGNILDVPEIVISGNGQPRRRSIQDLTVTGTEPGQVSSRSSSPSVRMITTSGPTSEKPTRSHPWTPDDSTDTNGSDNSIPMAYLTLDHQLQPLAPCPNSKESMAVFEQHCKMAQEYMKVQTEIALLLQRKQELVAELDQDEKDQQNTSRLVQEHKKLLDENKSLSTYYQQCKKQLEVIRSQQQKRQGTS

[12] = target: T12, NDR1 (Homo sapiens, UniProt Q15208); settings: 10 µM
T12 construct: purchased DiscoverX (KINOMEscan)

[13] = target: T13, IKK-alpha (Homo sapiens, UniProt O15111); settings: 10 µM
T13 construct: purchased DiscoverX (KINOMEscan)

[14] = target: T14, CAMK1G (Homo sapiens, UniProt Q96NX5); settings: 10 µM
T14 construct: purchased DiscoverX (KINOMEscan)

[15] = target: T15, CDK11 (Homo sapiens, UniProt Q9BWU1); settings: 10 µM
T15 construct: purchased DiscoverX (KINOMEscan)

[16] = target: T16, EGFR(E746-A750del) (Homo sapiens, UniProt P00533, DEL746-750); settings: 10 µM
T16 construct: purchased DiscoverX (KINOMEscan)

[17] = target: T17, IRAK1 (Homo sapiens, UniProt P51617); settings: 10 µM
T17 construct: purchased DiscoverX (KINOMEscan)

[18] = target: T18, EGFR(L861Q) (Homo sapiens, UniProt P00533, L861Q); settings: 10 µM
T18 construct: purchased DiscoverX (KINOMEscan)

[19] = target: T19, STK33 (Homo sapiens, UniProt Q9BYT3); settings: 10 µM
T19 construct: purchased DiscoverX (KINOMEscan)

[20] = target: T20, EGFR(L858RT790M) (Homo sapiens, UniProt P00533, L858R/T790M); settings: 10 µM
T20 construct: purchased DiscoverX (KINOMEscan)

[21] = target: T21, MEK1 (Homo sapiens, UniProt Q02750); settings: 10 µM
T21 construct: purchased DiscoverX (KINOMEscan)

[22] = target: T22, EPHA6 (Homo sapiens, UniProt Q9UF33); settings: 10 µM
T22 construct: purchased DiscoverX (KINOMEscan)

[23] = target: T23, TYRO3 (Homo sapiens, UniProt Q06418); settings: 10 µM
T23 construct: purchased DiscoverX (KINOMEscan)

[24] = target: T24, AKT2 (Homo sapiens, UniProt P31751); settings: 10 µM
T24 construct: purchased DiscoverX (KINOMEscan)
T24 sequence (P31751 whole entry): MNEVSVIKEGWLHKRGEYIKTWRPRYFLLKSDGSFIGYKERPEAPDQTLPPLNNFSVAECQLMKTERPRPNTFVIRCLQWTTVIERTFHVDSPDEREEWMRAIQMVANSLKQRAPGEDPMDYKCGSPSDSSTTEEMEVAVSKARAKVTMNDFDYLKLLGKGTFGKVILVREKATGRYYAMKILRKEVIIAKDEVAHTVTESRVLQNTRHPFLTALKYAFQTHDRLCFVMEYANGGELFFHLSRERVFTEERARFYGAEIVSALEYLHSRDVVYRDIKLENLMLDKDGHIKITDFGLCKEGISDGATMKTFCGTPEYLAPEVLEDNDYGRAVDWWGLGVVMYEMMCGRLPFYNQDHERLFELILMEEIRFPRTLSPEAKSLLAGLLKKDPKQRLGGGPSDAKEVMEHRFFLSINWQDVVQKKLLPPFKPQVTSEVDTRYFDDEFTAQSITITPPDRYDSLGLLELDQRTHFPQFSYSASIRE

[25] = target: T25, PIP5K1A (Homo sapiens, UniProt Q99755); settings: 10 µM
T25 construct: purchased DiscoverX (KINOMEscan)

[26] = target: T26, p38-delta (Homo sapiens, UniProt O15264); settings: 10 µM
T26 construct: purchased DiscoverX (KINOMEscan)

[27] = target: T27, PLK2 (Homo sapiens, UniProt Q9NYY3); settings: 10 µM
T27 construct: purchased DiscoverX (KINOMEscan)

[28] = target: T28, PKMYT1 (Homo sapiens, UniProt Q99640); settings: 10 µM
T28 construct: purchased DiscoverX (KINOMEscan)

[29] = target: T29, EGFR(S752-I759del) (Homo sapiens, UniProt P00533, DEL752-759); settings: 10 µM
T29 construct: purchased DiscoverX (KINOMEscan)
T29 sequence (P00533 with tags, fused parts or gaps DEL752-759 limits assumed): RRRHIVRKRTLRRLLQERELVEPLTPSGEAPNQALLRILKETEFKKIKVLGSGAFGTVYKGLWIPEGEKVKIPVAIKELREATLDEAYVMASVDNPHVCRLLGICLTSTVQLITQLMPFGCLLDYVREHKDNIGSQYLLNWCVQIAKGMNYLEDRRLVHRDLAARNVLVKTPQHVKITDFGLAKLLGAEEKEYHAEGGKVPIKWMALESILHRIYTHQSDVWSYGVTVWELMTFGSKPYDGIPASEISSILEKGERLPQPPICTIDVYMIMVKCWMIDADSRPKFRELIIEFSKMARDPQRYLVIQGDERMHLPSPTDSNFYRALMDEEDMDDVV

[30] = target: T30, WEE1 (Homo sapiens, UniProt P30291); settings: 10 µM
T30 construct: purchased DiscoverX (KINOMEscan)

[31] = target: T31, ABL1(F317L)-nonphosphorylated (Homo sapiens, UniProt P00519, F317L); settings: 10 µM
T31 construct: purchased DiscoverX (KINOMEscan)

[32] = target: T32, PIM2 (Homo sapiens, UniProt Q9P1W9); settings: 10 µM
T32 construct: purchased DiscoverX (KINOMEscan)

[33] = target: T33, PKNB(M.tuberculosis) (Mycobacterium tuberculosis, UniProt P9WI81); settings: 10 µM
T33 construct: purchased DiscoverX (KINOMEscan)

[34] = target: T34, MRCKB (Homo sapiens, UniProt Q9Y5S2); settings: 10 µM
T34 construct: purchased DiscoverX (KINOMEscan)

[35] = target: T35, FLT3(D835H) (Homo sapiens, UniProt P36888, D835H); settings: 10 µM
T35 construct: purchased DiscoverX (KINOMEscan)

[36] = target: T36, LIMK1 (Homo sapiens, UniProt P53667); settings: 10 µM
T36 construct: purchased DiscoverX (KINOMEscan)
T36 sequence (P53667 whole entry): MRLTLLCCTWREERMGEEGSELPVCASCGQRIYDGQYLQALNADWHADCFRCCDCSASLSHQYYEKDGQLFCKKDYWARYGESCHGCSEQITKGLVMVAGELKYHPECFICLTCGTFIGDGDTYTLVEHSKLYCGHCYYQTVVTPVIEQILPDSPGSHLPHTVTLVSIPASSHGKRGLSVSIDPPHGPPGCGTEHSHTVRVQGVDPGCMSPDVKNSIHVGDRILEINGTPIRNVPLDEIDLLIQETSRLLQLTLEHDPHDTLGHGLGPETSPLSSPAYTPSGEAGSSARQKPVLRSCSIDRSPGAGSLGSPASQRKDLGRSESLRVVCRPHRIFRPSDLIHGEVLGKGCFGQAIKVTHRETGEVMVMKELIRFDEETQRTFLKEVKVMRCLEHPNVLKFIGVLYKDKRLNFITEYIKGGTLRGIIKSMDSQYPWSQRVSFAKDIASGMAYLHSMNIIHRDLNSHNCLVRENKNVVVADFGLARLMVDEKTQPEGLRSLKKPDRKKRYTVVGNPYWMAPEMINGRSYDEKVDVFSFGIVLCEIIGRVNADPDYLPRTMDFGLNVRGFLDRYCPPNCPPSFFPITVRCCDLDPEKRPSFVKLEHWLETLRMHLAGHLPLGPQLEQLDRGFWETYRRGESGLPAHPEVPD

[37] = target: T37, PRKCQ (Homo sapiens, UniProt Q04759); settings: 10 µM
T37 construct: purchased DiscoverX (KINOMEscan)
T37 sequence (Q04759 whole entry): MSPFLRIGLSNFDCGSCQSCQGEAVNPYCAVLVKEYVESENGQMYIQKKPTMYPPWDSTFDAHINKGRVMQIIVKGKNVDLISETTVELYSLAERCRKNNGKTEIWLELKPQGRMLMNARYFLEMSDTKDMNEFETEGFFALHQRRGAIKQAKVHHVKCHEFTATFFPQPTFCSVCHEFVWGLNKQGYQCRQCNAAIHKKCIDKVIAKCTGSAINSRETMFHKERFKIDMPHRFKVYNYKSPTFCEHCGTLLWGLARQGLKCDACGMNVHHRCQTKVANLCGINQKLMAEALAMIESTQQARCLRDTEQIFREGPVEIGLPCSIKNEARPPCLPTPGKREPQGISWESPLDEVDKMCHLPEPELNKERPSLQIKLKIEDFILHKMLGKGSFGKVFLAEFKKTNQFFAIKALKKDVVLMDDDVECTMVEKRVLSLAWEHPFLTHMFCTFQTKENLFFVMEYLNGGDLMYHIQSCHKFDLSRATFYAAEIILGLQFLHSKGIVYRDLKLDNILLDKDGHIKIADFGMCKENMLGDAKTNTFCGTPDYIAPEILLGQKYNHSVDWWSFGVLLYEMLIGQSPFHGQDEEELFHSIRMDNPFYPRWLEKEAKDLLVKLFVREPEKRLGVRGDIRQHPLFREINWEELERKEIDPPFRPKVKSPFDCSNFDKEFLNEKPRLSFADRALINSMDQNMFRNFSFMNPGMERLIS

[38] = target: T38, p38-gamma (Homo sapiens, UniProt P53778); settings: 10 µM
T38 construct: purchased DiscoverX (KINOMEscan)
T38 sequence (P53778 whole entry): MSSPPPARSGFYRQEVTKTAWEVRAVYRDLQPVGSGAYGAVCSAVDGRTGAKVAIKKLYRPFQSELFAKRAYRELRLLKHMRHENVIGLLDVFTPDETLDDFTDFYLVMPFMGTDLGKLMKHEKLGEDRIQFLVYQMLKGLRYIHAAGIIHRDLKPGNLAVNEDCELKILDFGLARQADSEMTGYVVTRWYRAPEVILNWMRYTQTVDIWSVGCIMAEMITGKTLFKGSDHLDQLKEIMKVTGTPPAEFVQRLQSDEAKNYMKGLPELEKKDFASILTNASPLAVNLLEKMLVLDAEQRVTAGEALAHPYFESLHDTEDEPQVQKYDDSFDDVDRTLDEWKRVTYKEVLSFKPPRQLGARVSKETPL

[39] = target: T39, ACVR2B (Homo sapiens, UniProt Q13705); settings: 10 µM
T39 construct: purchased DiscoverX (KINOMEscan)

[40] = target: T40, ADCK4 (Homo sapiens, UniProt Q96D53); settings: 10 µM
T40 construct: purchased DiscoverX (KINOMEscan)

[41] = target: T41, RIOK1 (Homo sapiens, UniProt Q9BRS2); settings: 10 µM
T41 construct: purchased DiscoverX (KINOMEscan)

[42] = target: T42, MST1 (Homo sapiens, UniProt Q13043); settings: 10 µM
T42 construct: purchased DiscoverX (KINOMEscan)

[43] = target: T43, TNNI3K (Homo sapiens, UniProt Q59H18); settings: 10 µM
T43 construct: purchased DiscoverX (KINOMEscan)

Nc1ccc(N=Nc2ccccc2)c(N)n1 [phenazopyridine, 2,6-diamino-3-(phenylazo)pyridine]
kinase inhibition [1]: 82
kinase inhibition [2]: 95
kinase inhibition [3]: 92
kinase inhibition [4]: 83
kinase inhibition [5]: 100
kinase inhibition [6]: 100
remaining kinase binding (% of control) ([7]; 10 µM): 4.6
remaining binding at 10 µM ([7]; read-out: % Of control): 4.6%
kinase inhibition [8]: 100
kinase inhibition [9]: 64
kinase inhibition [10]: 98
kinase inhibition [11]: 80
kinase inhibition [12]: 100
kinase inhibition [13]: 64
kinase inhibition [14]: 88
kinase inhibition [15]: 90
remaining binding (% of control) [16]: 69
kinase inhibition [17]: 100
kinase inhibition [18]: 95
kinase inhibition [19]: 100
kinase inhibition [20]: 100
kinase inhibition [21]: 99
kinase inhibition [22]: 91
kinase inhibition [23]: 94
kinase inhibition [24]: 100
kinase inhibition [25]: 56
kinase inhibition [26]: 89
% of control (remaining binding) [27]: 92
kinase inhibition [28]: 85
kinase inhibition [29]: 97
kinase inhibition [30]: 100
kinase inhibition [31]: 67
kinase inhibition [32]: 100
remaining binding (% of control) [33]: 96
kinase inhibition [34]: 100
remaining binding (% of control) [35]: 81
kinase inhibition [36]: 100
kinase inhibition [37]: 81
kinase inhibition [38]: 100
kinase inhibition [39]: 84
kinase inhibition [40]: 90
remaining binding (% of control) [41]: 93
kinase inhibition [42]: 88
kinase inhibition [43]: 100
